According to ChEMBL document CHEMBL1158751, “Isoneocryptolepine, a synthetic indoloquinoline alkaloid, as an antiplasmodial lead compound” (J Nat Prod, 2005):
pIC50: −log10 of the molar value. Counter-ions that a name gives are not always drawn.

How the values were obtained:
[1] = test system: Mus musculus; assay: Toxicity in Plasmodium berghei ANKA S infected NMRI mice (Mus musculus) assessed as death at 50 mg/kg, intraperitoneally twice a day after day 1 post-infection; format: organism-based; parameters: dose 50 mg/kg, route intraperitoneal; settings: in vivo, ip
[2] = test system: Trypanosoma brucei rhodesiense; assay: Antitrypanosomal activity against Trypanosoma brucei rhodesiense; format: functional, organism-based
[3] = test system: Trypanosoma cruzi; assay: Antitrypanosomal activity against Trypanosoma cruzi; format: functional, organism-based
[4] = test system: Leishmania donovani; assay: Antileishmanial activity against Leishmania donovani; format: functional, organism-based
[5] = test system: L6; assay: Cytotoxicity against rat L6 cells; format: cell-based
[6] = Selectivity index, IC50 for rat L6 cells to IC50 for chloroquine and pyrimethamine-resistant Plasmodium falciparum K1; format: functional
[7] = test system: Plasmodium berghei; assay: Antiplasmodial activity against Plasmodium berghei ANKA S infected NMRI mice (Mus musculus) as reduced parasitaemia at 50 mg/kg subcutaneous dose for 4 days; format: functional; parameters: scale not given: the % may be the effect or the level left
[8] = test system: Plasmodium falciparum; assay: microbe, parasite or virus in culture; settings: K1, 3 h
[9] = Displacement of methyl green dye from DNA

Cn1c2ccccc2c2c[n+](C)c3ccccc3c21.[I-]
Activity [1]: Toxic | pIC50 [2]: 6.43 | pIC50 [3]: 3.63 | pIC50 [4]: 5.94 | pIC50 [5]: 4.90 | Ratio IC50 [6]: >700 | Activity [7]: 38.9% | pIC50 [8]: 7.77

Cn1c2c3ccccc3nc-2c(-n2c3ccccc3c3nc4ccccc4cc32)c2ccccc21
pIC50 [2]: 4.02 | pIC50 [3]: 4.07 | pIC50 [4]: < 4.19 | pIC50 [5]: 3.78

C[C@@H]1CC[C@H]2[C@@H](C)C(=O)O[C@@H]3O[C@@]4(C)CC[C@@H]1[C@]32OO4 [ARTEMISININ]
IC50 [8]: 0.042 µg/mL

O=C(Cn1ccnc1[N+](=O)[O-])NCc1ccccc1 [BENZNIDAZOLE]
IC50 [3]: 1.5 µg/mL

Cn1c2c3ccccc3nc-2c(-c2c3nc4ccccc4c-3n(C)c3ccccc23)c2ccccc21 [BISCRYPTOLEPINE]
pIC50 [2]: 5.59 | pIC50 [3]: 5.46 | pIC50 [4]: 5.05 | pIC50 [5]: 4.87 | pIC50 [8]: 6.57

CCN(CC)CCCC(C)Nc1ccnc2cc(Cl)ccc12 (centres undefined) [CHLOROQUINE]
Activity [7]: 99.9%

C[n+]1c2ccccc2cc2[n-]c3ccccc3c21 [CRYPTOLEPINE HYDROCHLORIDE]
pIC50 [9]: 4.19 | pIC50 [5]: 5.95

Cn1cc2c3ccccc3nc-2c2ccccc21 [ISOCRYPTOLEPINE HYDROCHLORIDE]
pIC50 [9]: 3.92 | pIC50 [5]: 5.92

C[n+]1cc2[nH]c3ccccc3c2c2ccccc21.[Cl-] [ISONEOCRYPTOLEPINE HYDROCHLORIDE]
pIC50 [9]: 3.91 | pIC50 [5]: 5.36 | Ratio IC50 [6]: 20 | Activity [7]: 10.3%

Nc1nc(N)nc(Nc2ccc([As]3SCC(CO)S3)cc2)n1 (centres undefined) [MELARSOPROL]
IC50 [2]: 0.0038 µg/mL

CCCCCCCCCCCCCCCCOP(=O)([O-])OCC[N+](C)(C)C [MILTEFOSINE]
IC50 [4]: 0.56 µg/mL

Cn1c2nc3ccccc3c-2cc2ccccc21 [NEOCRYPTOLEPINE HYDROCHLORIDE]
pIC50 [9]: 4.03 | pIC50 [5]: 5.49

COc1cc([C@@H]2c3cc4c(cc3[C@H](O)[C@H]3COC(=O)[C@H]23)OCO4)cc(OC)c1OC [PODOFILOX]
IC50 [5]: 0.018 µg/mL

C=C[C@H]1CN2CC[C@H]1C[C@H]2[C@H](O)c1ccnc2ccc(OC)cc12 [QUININE]
pIC50 [9]: < 3.44
